Patent US20090286693A1, “MICROARRAYS OF TAGGED COMBINATORIAL TRIAZINE LIBRARIES” (New York University, NYU Medical Center, Department of …, priority 2001, published 2009)
Like-named read-outs stand apart in the source and are kept apart here.

Tests used:
human IgG [1] = system: T1, human IgG; test: Small-molecule microarray screening with Cy3-labeled human IgG; format: binding; conditions: for microarray hit strength in words: based on spot intensity; for array signal (fluorescence units): spot intensity, background subtracted
T1 construct: array signal (fluorescence units); other: spot intensity, background subtracted; human IgG-Cy3; array signal class; other: symbol in brackets after the fluorescence units; microarray hit strength in words; other: based on spot intensity, human IgG-Cy3; fused on or other part: Cy3 dye coupled through the NHS ester (chemical label, no fusion)
Source text: Human IgG was fluorescently labeled with Cy3-NHS to allow for sensitive visualization of small molecule-IgG interactions on the array. […] The resulting scans were typical to that seen in FIG. 1. […] The spot intensities of these molecules are given in Table 1, with the background subtracted accordingly.
Preparation and Analysis of Small-Molecule Arrays. Preparation of Slides Activated with N-Hydroxysuccinimide Esters. 2 Briefly, 25 mm×75 mm slides (Fisher Scientific) were cleaned in piranha solution (sulfuric acid/hydrogen peroxide, 7:3). An amine functionality was incorporated onto the slides by silanization using a solution of 3% (aminopropyl)triethoxysilane in 2% water and 95% ethanol. After 1-2 h of soaking, the slides were washed with ethanol and cured at 150° C. for at least 2 h. Subsequently, the amine slides were incubated in a solution of 180 mM succinic anhydride in DMF for 30 min thereafter were transferred to a boiling water bath for 2 min. The slides were washed again in ethanol and dried under a stream of nitrogen. The carboxylic acid moieties now created on the slide surface were activated with a solution of 100 mM of TBTU (O-(benzotriazol-1-yl)-N,N,N,N-tetramethyluronium tetrafluoroborate), 200 mM DIEA, and 100 mM N-hydroxysuccinimide in DMF, thus generating the NHS-derivatized slides.
Microarray Printing. By individually weighing the solid compounds, triazine stock solutions were prepared to 2.5 mM in DMF, and 40-iL preparations were distributed across seven 384-well plates to give a total of 2688 distinct and pure compounds. Slides were spotted on an ESI SMA arrayer (Ontario, Canada) with the printhead installed with eight ArrayIt Chipmaker 7 Microspotting pins (Telechem, U.S.A.). Printing was performed in duplicate, and the pins were washed and sonicated in ethanol between samples. A repotting blotting process was also performed on plain slides to ensure spot uniformity. An additional solution of 0.2 mM Cy3-NH2 11 reference was spotted at the ends of the grids using a final eighth plate.
After spotting, the slides were allowed to sit for at least 12 h in situ and then were quenched by washing in an 1% ethanolamine (in DMF) bath for 2 h. After rinsing with Journal of Combinatorial Chemistry Discovery of Small-Molecule Ligands of Human IgG E ethanol and drying, the arrayed slides were stored in a desiccator at 4° C. The slides were stable for extended periods and, when required, were simply brought to room temperature.
Protein Screening with Labeled Human IgG. Proteins were tagged with Cy3-NHS by incubating 5 iL of 20 mM Cy3-NHS (Amersham Biosciences, U.K.) with 200 ig of human IgG (Calbiochem, U.S.A.) in a sodium bicarbonate buffer at pH 8. After 1 h of incubation, the labeled protein was separated from the free dye by a NAP-5 Sephadex G-50 column (Amersham Biosciences, U.K.). Before incubation with the labeled protein, the slides were preblocked to remove any nonspecific binding by soaking in 1% BSA in PBS for 1 h. After a brief rinsing with water, the slides were incubated with the labeled IgG.
A 1000-fold dilution of the above protein preparation was used as the incubation solution in a PBS buffer containing 1% BSA with the small-molecule arrays using the cover slip method for 30 min in a humid incubation chamber. Excess IgG was then removed by washing with distilled water. The background was further reduced using repeated washes with PBST.
Slide Scanning and Analysis. Slides were scanned on an ArrayWoRx scanner (Applied Precision, U.S.A.). Excel sheets were prepared to assign various compounds to specific numberings that could be readily tallied with reference numbers generated by the program. The ArrayWoRx software allows generation of reference files in which the spotting arrangement and the program overlay the spots on the results obtained, allowing compounds to be assigned in a rational fashion to every position. […]

[2] = system: other fluorescently labeled proteins (unrelated to human IgG); test: Control microarray screening with unrelated fluorescently labeled proteins; conditions: same slide screened with other fluorescently labeled proteins; no positive binding
human IgG [3] = target: T2, human IgG; test: SPR (Biacore X) competitive binding with protein A on CM-5 chip immobilized with human IgG, dissociation constants
T2 construct: Kd/M; other: SPR, small molecule premixed with protein A, IgG immobilized; averaged dissociation constant; other: protein A with IgG alone
Method: Dissociation constants were determined for each of the compounds selected using SPR on a Biacore X system with BiaEvaluation software. Competitive binding experiments were performed with differentially proportioned mixtures of a small molecule and protein A on a CM-5 chip immobilized with human IgG (see Supporting Information) (Table 1), which also ensures the small molecule binding to the same Scheme 2. General Experimental Scheme a (a) Directed immobilization of triazine libraries to generate a high-density microarray. (B) Incubation with a fluorescently labeled protein. (C) Removal of the unbound protein through washing. (D) Detection with instantaneous deconvolution of positive hits. (E) Assessing efficacy of hits using SPR. An averaged dissociation constant of 1.25×10−9 M was obtained for protein A with IgG alone. Further assessments made by passing 2.5 iM of a small molecule against the IgG surface were also performed to give measurable association levels that correlate with binding affinities (Table 1). Immobilizing the small molecules and applying IgG in the solution phase obtained equivalent binding measurements; however, by employing the competitive binding method described, a single chip surface may be used for screening against multiple potential small-molecule ligands, economizing the process. A φ2 value of <10 was obtained for all Kd measurements, denoting good statistical validity of the results obtained.
Surface Plasmon Resonance (SPR) Determination of Dissociation Constants. Maintenance. SPR measurements were made on a Biacore X system (Biacore AB, Uppsala, Sweden). Various maintenance steps were performed to ensure that the instrument was kept in good working conditions. The integrated flow cell was washed, sanitized, and maintained using standard cleansing reagents on a weekly basis. Calibration checks were performed quarterly to ensure that the signal was of good quality, and the instrument was kept separate from other equipments to prevent interference. When not in use, the system was docked with a spare chip and flushed with water at a low flow rate of 5 iL/min to prevent clogging. The system was primed at least twice before use or for the purpose of initiating a new buffer type. A desorb process was performed every 2 days during periods of active use to remove proteins or other contaminating compounds that may have accumulated within the flow cell.
Procedures. Various approaches were conceived to assess the Kd values of the interactions. One successful method immobilized the small molecule on the CM-5 sensor chips and ran them through varying concentrations of IgG. […] We conceived that it would be easier to immobilize IgG on the surface and apply differing proportioned mixtures of the “hit” small molecule and protein A (Amersham Biosciences, U.K.). […]

[4] = SPR, small molecule premixed with protein A, IgG immobilized, read-out: Kd/M

Row | Molecule | microarray hit strength in words (human IgG [1]) | array signal (fluorescence units) (human IgG [1]) | specificity of binding toward human IgG [2] | Kd (human IgG [3]; [4]) | Kd (human IgG [3]; protein A with IgG alone, read-out: averaged dissociation constant)
1 | NCCOCCOCCNC(=O)c1ccc(CNc2nc(NCC3CCCCC3)nc(NC3CC4CCC3C4)n2)cc1 (stereo not drawn) [AMD03] | strongest hits | 185 fluorescence units | highly specific | 2.02 µM | –
2 | NCCOCCOCCNC(=O)c1ccc(CNc2nc(NCC3CCCCC3)nc(NC3CCC3)n2)cc1 [AMD10] | strongest hits | 179 fluorescence units | highly specific | 4.35 µM | –
3 | COc1ccc(CNc2nc(Nc3ccc(CC(=O)NCCOCCOCCN)cc3)nc(N3CCCCC3)n2)cc1 [APF29] | negative | < 10 fluorescence units | – | 151 µM | –
4 | protein A: staphylococcal protein A (Amersham Biosciences), high molecular weight IgG ligand used as SPR competitor [reference compound] | – | – | – | – | 0.00125 µM
